# Patent US20260248809A1, “ESTRADIOL PRODRUGS AND METHODS OF USE THEREOF” (UNIVERSITY OF MARYLAND, BALTIMORE, priority 2022, published 2026)
# How the values were obtained:
# male mice [1] = assay: Subthreshold social defeat stress (SSDS) followed by social interaction test; format: in vivo, mouse; details: for stress-induced social interaction deficits: chronic treatment (silastic implant or minipump), orchiectomized male mice + SSDS; for social interaction (sociability) deficits: orchiectomized male mice
# Protocol: Subthreshold social defeat stress: Retired CD1 breeders are singly housed and used as aggressors. Experimental mice are introduced to the home cage of an aggressor for 2 min to initiate the physical attack phase. Afterward, mice are transferred and housed on the opposite side of the aggressor, in the same cage separated by a perforated Plexiglass divider for 15 mins in order to maintain sensory contact. This process is repeated 3 times over a period of ~50 min.
# (§1) Social Interaction: Mice are placed in a rectangular box (40 cm length×30 cm width×35 cm height; Stoelting, IL) divided into three compartments (two equal-sized end-chambers and a middle chamber) for five minute habituation phase (10-15 lux). After the habituation phase, two small wire cages are introduced into the two end chambers, one containing an unfamiliar, non-aggressive CD1 mouse and the other remaining empty. The amount of time mice spent sniffing each cage during the five-min test is assessed using CleverSys tracking software (CleverSys, Inc, Reston VA, USA).
# For the chronic administration paradigms, silastic tubes (1.02 mm inner diameter×2.16 mm outer diameter) were filled with testosterone (10 mm) or 17β-Estradiol (E2; 1,3 and 10 mm; Sigma-Aldrich, St. Louis, MO, USA). Silastic implants were primed in 0.9% saline at 37° C. overnight prior to their subcutaneous use. Letrozole (1 mg/kg/day; Sigma-Aldrich, St. Louis, MO, USA) was dissolved in propylene glycol (MP Biomedicals, Santa Ana, CA, USA) and administered through ALZET minipumps (Model 1002, 0.25 μl/hour, 14 days; Cupertino, CA, USA). DHED (synthesized using previously described methods) was dissolved in 0.9% saline and administered through ALZET minipumps (Model 1002, 0.25 μl/hour, 14 days; Cupertino, CA, USA) at a dose of […]. Flutamide was administered through 1.5 mg slow-release subcutaneous pellets (Innovative Research of America, Sarasota, FL, USA). For acute administration, 17β-Estradiol (E2; 10 and […]) was dissolved in sesame oil (4 ml/kg, s.c.; Sigma-Aldrich, St. Louis, MO, USA).
# Retired CD1 breeders were singly housed and used as aggressors. Two days prior to the start of the experiment, experimental mice were also singly housed. The stress procedure was performed using previously described methods. Briefly, experimental mice were introduced to the home cage of an aggressor for 2 min to initiate the physical attack phase. Afterward, mice were transferred and housed on the opposite side of the aggressor, in the same cage separated by a perforated Plexiglass divider for 15 mins in order to maintain sensory contact. This process was repeated 3 times over a period of ~50 min. Following the completion of the third cycle, mice were placed back in their home cages.
# Acute E2 was administered 45 min prior to the initiation of stress or 5 min after the completion of stress. For the optogenetic stimulation, ChR2 and YFP-injected mice received a 4 Hz, 5 ms pulse width, 10-15 mW 470 nm light stimulation for 45 min prior to the initiation of stress. This stimulation paradigm was shown previously to increase synaptic transmission. The optogenetic set up consisted of an LED driver paired with a fiber-coupled LED light source attached to a bifurcated optogenetic path cable (400 μm, 0.49 NA; ThorLabs, Newton NJ, USA).
# as §1, with “Social interaction was performed 24 hours following subthreshold social defeat or inescapable foot-shock stress. For the habituation phase, mice were” for “Social Interaction: Mice are”, “five minutes” for “five minute habituation phase”, “cages were” for “cages are”, “test was” for “test is”
# male mice [2] = assay: Stress-moderated acquisition, extinction and reinstatement of fear; format: in vivo, mouse; details: orchiectomized males + subthreshold SDS, 10 mm silastic implant
# Excerpt: Determine the role of E2 in stress-moderated acquisition, extinction, and reinstatement of fear responses in males. Animal approaches to study PTSD should include an inescapable severe stressor. These experiments assess interactions between a stress and the effects of E2. […] For either result, it is critical to understand if E2 mediates interactions with stress. This is because the acquisition of fear is an adaptive response that is not considered pathological in and of itself. However, veterans have often encountered stressful circumstances that lead to an exaggerated and pathological state of fear, which is both resistant to extinction and highly susceptible to relapse. Considering that social stress is an important risk factor contributing toward the onset of PTSD in response to a traumatic event, the social defeat stress paradigm is utilized in order to model the conditions under which veterans develop PTSD. […] It is anticipated that sub-threshold SDS (rather than 10 day) paradigm is sufficient to induce effects in orchiectomized mice. […] Mice are assessed for social interaction deficits 24 hours after the subthreshold defeat sessions to determine if they are resilient or susceptible. n=18/mice per group is used to account for only a subset of mice being susceptible to stress. […]
SMILES,stress-induced social interaction deficits (male mice [1]),social interaction (sociability) deficits (male mice [1]; acute administration 5 min after SSDS),social interaction (sociability) deficits (male mice [1]; acute s.c. administration 45 min prior to SSDS),stress-susceptible phenotype induced by low testosterone (male mice [1]; orchiectomized mice on low dose testosterone + SSDS),stress effect on extinction of conditioned fear and reinstatement (male mice [2]),"maladaptive behaviors (social interaction, anhedonia) (male mice [1]; chronic treatment, gonadally intact or non-stressed mice)"
"C[C@]12CC[C@@H]3c4ccc(O)cc4CC[C@H]3[C@@H]1CC[C@@H]2O [Example E2, 17β-Estradiol]",reversed the stress-induced social avoidance,reversed only the anhedonia phenotype,prevented the development of both sociability deficits,completely recover the phenotype,reversed,
"C[C@]12CC[C@H]3[C@@H](CCC4=CC(=O)CC[C@@]43C)[C@@H]1CC[C@@H]2O [Testosterone, testosterone]",reversed the observed maladaptive behaviors,,,,reversed,no effect
